Source: PubChem BioAssay (NCI)
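Briefly, cells in 96-well plates were exposed to five compound concentrations for 48 h, and endpoints were estimated by linear interpolation. TGI marks complete inhibition of growth.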

What was measured:
Assay in all cases: growth of human tumour cells (NCI), 48 h
HT29 colon = system: HT29 colon
TK-10 renal = system: TK-10 renal
MCF7 breast = system: MCF7 breast
EKVX NSCLC = system: EKVX NSCLC
RPMI-8226 leukemia = system: RPMI-8226 leukemia
UO-31 renal = system: UO-31 renal
SW-620 colon = system: SW-620 colon
HOP-62 NSCLC = system: HOP-62 NSCLC
NCI-H522 lung = system: NCI-H522 lung
U251 CNS = system: U251 CNS
LOX IMVI melanoma = system: LOX IMVI melanoma
K-562 leukemia = system: K-562 leukemia
M14 melanoma = system: M14 melanoma
786-0 renal = system: 786-0 renal
SNB-19 CNS = system: SNB-19 CNS
NCI/ADR-RES ovarian = system: NCI/ADR-RES ovarian
HCT-15 colon = system: HCT-15 colon
CCRF-CEM leukemia = system: CCRF-CEM leukemia
SK-MEL-5 melanoma = system: SK-MEL-5 melanoma
COLO 205 colon = system: COLO 205 colon
MDA-N = system: MDA-N
SK-OV-3 ovarian = system: SK-OV-3 ovarian
OVCAR-3 ovarian = system: OVCAR-3 ovarian
DU-145 prostate = system: DU-145 prostate
KM12 colon = system: KM12 colon
HS 578T breast = system: HS 578T breast
OVCAR-8 ovarian = system: OVCAR-8 ovarian
NCI-H23 lung = system: NCI-H23 lung
SNB-75 CNS = system: SNB-75 CNS
UACC-62 melanoma = system: UACC-62 melanoma
OVCAR-5 ovarian = system: OVCAR-5 ovarian
OVCAR-4 ovarian = system: OVCAR-4 ovarian
HCT-116 colon = system: HCT-116 colon
SR leukemia = system: SR leukemia
IGROV1 ovarian = system: IGROV1 ovarian
SK-MEL-2 melanoma = system: SK-MEL-2 melanoma
SF-268 CNS = system: SF-268 CNS
ACHN renal = system: ACHN renal
NCI-H226 lung = system: NCI-H226 lung
HOP-92 NSCLC = system: HOP-92 NSCLC
SK-MEL-28 melanoma = system: SK-MEL-28 melanoma
SN12C renal = system: SN12C renal
MDA-MB-231 breast = system: MDA-MB-231 breast
PC-3 prostate = system: PC-3 prostate
A549 NSCLC = system: A549 NSCLC
MDA-MB-435 = system: MDA-MB-435
SF-295 CNS = system: SF-295 CNS
A498 renal = system: A498 renal
MALME-3M melanoma = system: MALME-3M melanoma
MOLT-4 leukemia = system: MOLT-4 leukemia

Cc1ccc(/C=C2\NC(=S)N(CN3CCCCC3)C2=O)cc1
TGI (HT29 colon): 72.7 µM
TGI (TK-10 renal): > 100 µM
TGI (MCF7 breast): > 100 µM
TGI (EKVX NSCLC): > 100 µM
TGI (RPMI-8226 leukemia): > 100 µM
TGI (UO-31 renal): > 100 µM
TGI (SW-620 colon): > 100 µM
TGI (HOP-62 NSCLC): > 100 µM
TGI (NCI-H522 lung): > 100 µM
TGI (U251 CNS): > 100 µM
TGI (LOX IMVI melanoma): > 100 µM
TGI (K-562 leukemia): > 100 µM
TGI (M14 melanoma): > 100 µM
TGI (786-0 renal): > 100 µM
TGI (SNB-19 CNS): > 100 µM
TGI (NCI/ADR-RES ovarian): > 100 µM
TGI (HCT-15 colon): > 100 µM
TGI (CCRF-CEM leukemia): 86.7 µM
TGI (SK-MEL-5 melanoma): > 100 µM
TGI (COLO 205 colon): 39.8 µM
TGI (MDA-N): > 100 µM
TGI (SK-OV-3 ovarian): > 100 µM
TGI (OVCAR-3 ovarian): > 100 µM
TGI (DU-145 prostate): > 100 µM
TGI (KM12 colon): > 100 µM
TGI (HS 578T breast): > 100 µM
TGI (OVCAR-8 ovarian): > 100 µM
TGI (NCI-H23 lung): > 100 µM
TGI (SNB-75 CNS): > 100 µM
TGI (UACC-62 melanoma): > 100 µM
TGI (OVCAR-5 ovarian): > 100 µM
TGI (OVCAR-4 ovarian): > 100 µM
TGI (HCT-116 colon): > 100 µM
TGI (SR leukemia): > 100 µM
TGI (IGROV1 ovarian): > 100 µM
TGI (SK-MEL-2 melanoma): > 100 µM
TGI (SF-268 CNS): > 100 µM
TGI (ACHN renal): > 100 µM
TGI (NCI-H226 lung): > 100 µM
TGI (HOP-92 NSCLC): 94.4 µM
TGI (SK-MEL-28 melanoma): > 100 µM
TGI (SN12C renal): > 100 µM
TGI (MDA-MB-231 breast): > 100 µM
TGI (PC-3 prostate): > 100 µM
TGI (A549 NSCLC): > 100 µM
TGI (MDA-MB-435): > 100 µM
TGI (SF-295 CNS): > 100 µM
TGI (A498 renal): > 100 µM
TGI (MALME-3M melanoma): > 100 µM
TGI (MOLT-4 leukemia): > 100 µM
